Results: patent US6689803B2, “Compositions and methods for treating surgical adhesions” (Angiotech Pharmaceuticals, Inc., priority 1996, dated 2004)
Like-named read-outs stand apart in the source and are kept apart here.

Legend:
collagenase (MMP-1) mRNA = test: IL-1 induced collagenase mRNA expression in chondrocytes (Northern blot); type: cell-based, calf; conditions: pre-incubation 6 hours, IL-1 20 ng/ml 18 hours
Description: Total RNA was isolated, and the MMP-1 mRNA levels were determined by Northern blot analysis. The blots were subsequently stripped and reprobed with ^32P-radiolabeled rat GAPDH cDNA, which was used as a housekeeping gene. The results shown are representative of four independent experiments. Quantitation of collagenase-1 and stromelysin-expression mRNA levels. The MMP-1 and MMP-3 expression levels were normalized with GAPDH.
Primary chondrocyte cultures were freshly isolated from calf cartilage. The cells were plated at 2.5×10^6 per ml in 100×20 mm culture dishes and incubated in Ham's F12 medium containing 5% FBS overnight at 37° C. […] IL-1 (20 ng/ml) was then added to each plate and the plates incubated for an additional 18 hours. Total RNA was isolated by the acidified guanidine isothiocyanate method and subjected to electrophoresis on a denatured gel. Denatured RNA samples (15 μg) were analyzed by gel electrophoresis in a 1% denatured gel, transferred to a nylon membrane and hydridized with the ^32P-labeled collagenase cDNA probe. ^32P-labeled glyceraldehyde phosphate […] (GAPDH) cDNA as an internal standard to ensure roughly equal loading. The exposed films were scanned and quantitatively analyzed with ImageQuant.

aggrecan mRNA = test: Expression of proteoglycan (aggrecan) in chondrocytes; type: cell-based, calf; conditions: all concentrations evaluated (10^−7 M to 10^−4 M)
Description: Primary chondrocyte cultures were freshly isolated from calf cartilage. The cells were plated at 2.5×10^6 per ml in 100×20 mm culture dishes and incubated in Ham's F12 medium containing 5% FBS overnight at 37° C. The cells were starved in serum-free medium overnight and then treated with anti-microtubule agents at various concentrations (10^−7 M, 10^−6 M, 10^−5 M and 10^−4 M) for 6 hours. […] Total RNA was isolated by the acidified guanidine isothiocyanate method and subjected to electrophoresis on a denatured gel. […] The exposed films were scanned and quantitatively analyzed with ImageQuant.

synoviocytes = test: Proliferation assay (MTT); type: cell-based; conditions: 24-hour exposure
Description: On day one, 5-10×10^4 synoviocytes were plated per well (96-well plate). Column #1 was kept free of cells (blank). On day 2, the plate was flicked to discard the medium and 200 μl of medium containing various concentrations of drug was added. […] There was no drug added to columns #1 and #2 (blank and untreated control, respectively). The medium containing the drug was discarded and 200 μl of fresh complete medium was added. The cells were then left to grow for an additional 3 to 4 days. On day five, 20 μl of dimethylthiazol diphenyltetrazolium bromide salt (MTT) (5 mg/ml PBS) was added and allowed to incubate for 4 hours at 37° C. The medium was decanted and 200 μl of DMSO was added.
The data were expressed as the % of survival which was obtained by dividing the number of cells remaining after treatment by the number of cells in the untreated control column #2 (the number of cells was obtained from a standard done prior to the assay).

[1] = test system: chick chorioallantoic membrane (CAM) vasculature
[2] = test system: collagen-induced arthritis; test: CIA rat model, intraperitoneal micellar paclitaxel; type: in vivo
Description: As a comparison with standard therapy, a third group received methotrexate at 0.3 mg/kg i.p. (human equivalent dose) on days 0, 5 and 10 post-arthritis onset. […] The control (group 5) and experimental animals were evaluated for disease severity both clinically and radiographically by individuals blinded to treatment groups.
The severity of inflammation for each limb was evaluated daily and scored based on standardized levels of swelling and periarticular erythema (0 being normal and 4 severe). Animals were evaluated radiographically on day 28 of the experiment. […] Histological assessment of the joints was completed at the conclusion of the experiment.

neutrophils [3] = test: Neutrophil chemiluminescence assay (opsonized CPPD crystals or zymosan); type: cell-based, human
Description: (§1) All experiments that studied neutrophil responses to crystals or zymosan in the presence of paclitaxel were performed using plasma opsonized CPPD or zymosan. Opsonization of crystals or zymosan was done with 50% heparinized plasma at a concentration of 75 mg of CPPD or 12 mg of zymosan per ml of 50% plasma Crystals or zymosan were incubated with plasma for 30 minutes at 37° C. and then washed in excess HBSS.
(§2) Neutrophil viability and purity was always greater than 90%.
A stock solution of LY290181 at 100 μM in HBSS was freshly prepared.
All chemiluminescence studies were performed at a cell concentration of 5,000,000 cells/ml in HBSS with CPPD (50 mg/ml). In all experiments 0.5 ml of cells was added to 25 mg of CPPD or 0.5 mg of zymosan in 1.5 ml capped Eppendorf tubes. 10 μl of luminol dissolved in 25% DMSO in HBSS was added to a final concentration of 1 μM and the samples were mixed to initiate neutrophil activation by the crystals or zymosan. Chemiluminescence was monitored using an LKB Luminometer (Model 1250) at 37° C. for 20 minutes with shaking immediately prior to measurements to resuspend the crystals or zymosan. Control tubes contained cells, drug and luminol (crystals absent).

neutrophils [4] = test: Superoxide anion generation by neutrophils; type: cell-based, human; conditions: 17 μM; CPPD crystals
Description: as §1, §2
Superoxide anion concentrations were measured using the superoxide dismutase inhibitable reduction of cytochrome C assay. Briefly, 25 mg of crystals or 0.5 mg of zymosan was placed in a 1.5 ml capped Eppendorf tube and warmed to 37° C. 0.5 ml of cells at 37° C. were added together with ferricytochrome C (final concentration 1.2 mg/ml) and the cells were activated by shaking the capped tubes. At appropriate times tubes were centrifuged at 10,000 g for 10 seconds and the supernatant collected for assay be measuring the absorbance of 550 nm. Control tubes were set up under the same conditions with the inclusion of superoxide dismutase at 600 units per ml.

neutrophils [5] = test: Neutrophil degranulation assay (myeloperoxidase, lysozyme release); type: cell-based, human; conditions: 17 μM; CPPD crystals
Description: as §2
One and a half milliliter Eppendorf tubes containing either 25 mg of CPPD or 1 mg of zymosan were preheated to 37° C. 0.5 ml of cells at 37° C. were added followed by vigorous shaking to initiate the reactions. At appropriate times, tubes were centrifuged at 10,000 g for 10 seconds and 0.4 ml of supernatant was stored at −20° C. for later assay.
Lysozyme was measured by the decrease in absorbance at 450 nm of a Micrococcus lysodeikticus suspension. Briefly, Micrococcus lysodeikticus was suspended at 0.1 mg/ml in 65 mM potassium phosphate buffer, pH 6.2 and the absorbance at 450 nm was adjusted to 0.7 units by dilution. The crystal (or zymosan) and cell supernatant (100 μl) was added to 2.5 ml of the Micrococcus suspension and the decrease in absorbance was monitored. Lysozyme standards (chicken egg white) in the 0 to 2000 units/ml range were prepared and a calibration graph of lysozyme concentration against the rate of decrease in the absorbance at 450 nm was obtained.
Myeloperoxidase (MPO) activity was measured by the increase in absorbance at 450 nm that accompanies the oxidation of dianisidine. 7.8 mg of dianisidine was dissolved in 100 ml of 0.1 M citrate buffer, pH 5.5 at […] by sonication. To a 1 ml cuvette, 0.89 ml of the dianisidine solution was added, followed by 50 μl of 1% Triton x 100, 10 μl of a 0.05% hydrogen peroxide in water solution and 50 μl of crystal-cell supernatant. MPO activity was determined from the change in absorbance (450 nm) per minute, Delta Å 450, using the following equation: […]

With `C/C(=C\c1csc(C)n1)[C@@H]1C[C@@H]2O[C@]2(C)CCC[C@H](C)[C@H](O)[C@@H](C)C(=O)C(C)(C)[C@@H](O)CC(=O)O1` [epothilone B] the “prevented IL-1-induced collagenase expression at concentrations as low as” value (collagenase (MMP-1) mRNA) was 100 nM, the expression of aggrecan (aggrecan mRNA) was “did not affect the expression of aggrecan” and the IC50 (synoviocytes) was ~45 nM.
In the case of `[O]=[V]([O-])([O-])[O-]` [vanadate], the Inhibition/n ([1]; in vivo) is reported as 0/5.
In the case of `O=S(=O)([O-])[O-].[O]=[V+2]` [vanadyl sulphate], the Inhibition/n ([1]; in vivo) is reported as 0/3.
For `Cc1occc(=O)c1[O-].Cc1occc(=O)c1[O-].[O]=[V+2]` [BMOV], the Inhibition/n ([1]; PCL paste (3 mg), 10%) was “too toxic”, the Inhibition/n ([1]; PCL paste (3 mg), 25%) was “too toxic” and the Inhibition/n ([1]; PCL paste (3 mg), 35%) was “too toxic”.
“ethylene glycol bis-(succinimidylsuccinate)” was tested, and the “prevented IL-1-induced collagenase expression at concentrations as low as” value (collagenase (MMP-1) mRNA) was 100 nM and the expression of aggrecan (aggrecan mRNA) was “did not affect the expression of aggrecan”.
In the case of `CN(Cc1cnc2nc(N)nc(N)c2n1)c1ccc(C(=O)N[C@@H](CCC(=O)O)C(=O)O)cc1` [methotrexate], the “Percentage of Animals with Erosions” value ([2]; 0.3 mg/kg) is reported as 76%, the “Radiographic Score” value ([2]; 0.3 mg/kg) is reported as 4.25 ± 0.64 and the “Antibody to Collagenase II” value ([2]; 0.3 mg/kg i.p.) is reported as 0.182 ± 0.0034. The “Arthritic Index on Day 10” value ([2]; 0.3 mg/kg i.p.) was 5.4 ± 0.6 and the “Maximum Mean Arthritis Score” value ([2]; 0.3 mg/kg i.p.) was 5.7 ± 0.6.
In the case of protamine sulphate, the Inhibition/n ([1]; methylcellulose (10 ul), 100 ul ^) is reported as 1/10.
In the case of baccatin, the Inhibition/n ([1]; methylcellulose (5 ul), 5 ug) is reported as 4/7 and the Inhibition/n ([1]; paste (2 mg), 2 ug) is reported as 2/3.
`COC(=O)/C=C/c1cc(O)ccc1O` [MDHC] was tested, and the Inhibition/n ([1]; PCL paste (3 mg), 20%) was 0/8.
With aluminum fluoride the “prevented IL-1-induced collagenase expression at concentrations as low as” value (collagenase (MMP-1) mRNA) was 100 nM, the “inhibition of plasma opsonized zymosan-induced neutrophil chemiluminescence” value (neutrophils [3]; 5 to 100 mM) was “strong inhibition” and the expression of aggrecan (aggrecan mRNA) was “did not affect the expression of aggrecan”. It also gave an IC50 (synoviocytes) of ~32000 nM.
`O=C(O)c1cc(NCc2cc(O)ccc2O)ccc1O` [lavendustine-c] was tested, and the Inhibition/n ([1]; PCL paste (3 mg), 10%) was 0/14 and the Inhibition/n ([1]; PCL paste (3 mg), 20%) was 0/10.
In the case of `CC[C@]1(O)C[C@H]2CN(CCc3c([nH]c4ccccc34)[C@@](C(=O)OC)(c3cc4c(cc3OC)N(C=O)[C@H]3[C@@](O)(C(=O)OC)[C@H](OC(C)=O)[C@]5(CC)C=CCN6CC[C@]43[C@@H]65)C2)C1` [vincristine], the Inhibition/n ([1]; PCL paste (3 mg), 1%) is reported as “too toxic”, the Inhibition/n ([1]; PCL paste (3 mg), 2%) is reported as “too toxic” and the “toxicity to the embryo” value ([1]; PCL paste, concentrations exceeding 2%) is reported as “unexpected embryonic death occurred”. The Inhibition/n ([1]; methylcellulose (10 ul), 1 ug) was “too toxic” and the Inhibition/n ([1]; methylcellulose (10 ul), 9 ug) was “too toxic”.
With `CC(O)CC(C)(C)O` (stereo not shown) [hexylene glycol, 2-methyl-2,4-pentanediol] the “prevented IL-1-induced collagenase expression at concentrations as low as” value (collagenase (MMP-1) mRNA) was 100 nM and the expression of aggrecan (aggrecan mRNA) was “did not affect the expression of aggrecan”.
For `CCc1occc(=O)c1[O-].CCc1occc(=O)c1[O-].[O-2].[V+4]` [BEOV], the Inhibition/n ([1]; PCL paste (3 mg), 10%) was “too toxic”.
herbimysin was tested, and the Inhibition/n ([1]; PCL paste (3 mg), 2%) was 3/4 and the Inhibition/n ([1]; in vivo) was 1/1.
`N#CC1=C(N)Oc2c(ccc3ccccc23)C1c1cccnc1` (stereo not shown) [LY290181, 2-amino-4-(3-pyridyl)-4H-naphtho(1,2-b)pyran-3-cardonitrile] was tested, and the superoxide anion production (neutrophils [4]) was “decrease in the amount of superoxide generated”, the “prevented IL-1-induced collagenase expression at concentrations as low as” value (collagenase (MMP-1) mRNA) was 100 nM and the lysozyme release (neutrophils [5]) was “decreased both lysozyme and myeloperoxidase release”. For the same compound, the myeloperoxidase release (neutrophils [5]) was “decreased both lysozyme and myeloperoxidase release”, the “inhibition of plasma opsonized zymosan-induced neutrophil chemiluminescence” value (neutrophils [3]; 0.5 to 50 μM) was “strong inhibition” and the expression of aggrecan (aggrecan mRNA) was “did not affect the expression of aggrecan”. The Inhibition/n ([1]; PCL paste (3 mg), 1%) was “did not induce an anti-angiogenesis response”, the Inhibition/n ([1]; PCL paste (3 mg), 5%) was “⅓” and the IC50 (synoviocytes) was < 5 nM.
In the case of `[2H]O[2H]` [deuterium oxide], the “prevented IL-1-induced collagenase expression at concentrations as low as” value (collagenase (MMP-1) mRNA) is reported as 100 nM and the expression of aggrecan (aggrecan mRNA) is reported as “did not affect the expression of aggrecan”.
`CCOC(=O)CN` [glycine ethyl ester] was tested, and the “prevented IL-1-induced collagenase expression at concentrations as low as” value (collagenase (MMP-1) mRNA) was 100 nM, the “inhibition of plasma opsonized zymosan-induced neutrophil chemiluminescence” value (neutrophils [3]; 0.5 to 20 mM) was “strong inhibition” and the expression of aggrecan (aggrecan mRNA) was “did not affect the expression of aggrecan”.
